# Assay results published in patent US20060009475A1, “Quinazolinone compounds in combined modalities for improved cancer treatment” (priority 2001, published 2006).
# “And” between values parts separate entries of the source, which are not always exact repeats. Equal values may be shown once.
# Key:
# [1] = cited from earlier work
# U266 cells = assay: Cell cycle analysis of multiple myeloma cells by flow cytometry; assay type: cell-based; conditions: 48 hours, different concentrations
# Method: Multiple Myeloma (MM) cell line U266B1 was purchased from ATCC (TIB-196).
# Cells (10^6) were incubated for 48 hours with different concentrations of halofuginone. The cells were permeabilized with 70% ethanol in PBS for 30 minutes at 4° C., and then incubated with 0.5 ml of a 50 μg/ml Propidium Iodide solution containing 20 U/ml RnaseA for 30 minutes. Cells were analyzed by flow cytometry.
# [2] = tested on: pancreatic cancer cell lines 3602 Xrt and 3602 Zyrd/Xrt; assay: Radiation survival of pancreatic cancer cell lines pre-treated with halofuginone; assay type: cell-based, human; conditions: 250 nM halofuginone for 24 hr, then radiated with 0-8 Gy
# Method: Two pancreatic cancer cell lines: 3602 Xrt and 3602 Zyrd/Xrt were incubated with or without 250 nM halofuginone for 24 hr, than radiated with 0-8 Gy. Survival fraction of the cell was determined.
# [3] = tested on: rabbit aortic smooth muscle cells (SMC); assay: [3H]-thymidine incorporation / cell cycle arrest in serum-stimulated smooth muscle cells; assay type: cell-based
# Method: Experiments were conducted to determine the specific phase of the cell cycle in which SMC treated with halofuginone were arrested.
# As determined by [^3H]-thymidine incorporation, addition of 10% FBS to growth-arrested, quiescent SMC promotes entry of the cells to S phase after a G1 period of 16 hours. Maximal DNA synthesis was seen 20 hours after serum-stimulation (FIG. 1).
# It was next determined whether halofuginone arrested proliferation at a specific stage in the cell cycle. For these experiments, quiescent SMCs were kept in 10% FBS plus 10^−7 M halofuginone for 24 hours. The cultures were then washed and placed in 10% FBS with [^3H]-thymidine and without halofuginone. At various times after halofuginone removal, the cells were harvested and thymidine incorporation was determined. When halofuginone-treated cells were released from growth-arrest, there was a lag of 4-6 hours before initiation of DNA synthesis, which peaked by 10 hours (FIG. 1).
# [4] = tested on: radiation-induced fibrosis (leg contraction); assay: Leg contraction model of radiation-induced fibrosis; assay type: in vivo, mice
# Method: Mice were injected intraperitoneally once daily with 1-5 μg/mouse of halofuginone, for a period of 4 months.
# The right leg only of each animal was radiated with 35Gy or 45Gy. […] Measurements were taken within time periods of 2 to 4 months after radiation.
# [5] = tested on: rat mesangial cells (RMC); assay: Cell cycle analysis of mesangial cells by propidium iodide FACScan; assay type: cell-based; conditions: 150 ng/ml halofuginone, 24 hours, 10% FCS
# Method: Further experiments were conducted to determine whether halofuginone arrests mesangial cell proliferation at a specific phase of the cell cycle.
# For this purpose sub confluent RMC's were kept in 10% FCS in the absence or presence of 150 ng/ml halofuginone for 24 hours. The cells were then harvested, stained with propidium iodide and analyzed by FACScan. The percentage of cells progressing into G2/M phase was reduced by halofuginone from 20% to 7%. The percentage of cells in G0/G1 was increased from 38% in the absence of halofuginone to 65% in the presence of halofuginone.
# [6] = tested on: human T98G glioblastoma (ic tumor); assay: Human T98G glioblastoma implanted intracranially, survival (increase-in-lifespan); conditions: BCNU 15 mg/kg ip, days 7, 9, 11, alone
# Method: Halofuginone was tested in the human T98G glioblastoma xenograft implanted subcutaneously or intracranially. Mice were implanted with the human T98G glioblastoma tumor cells subcutaneously in a thigh or intracranially.
# Halofuginone was administered orally by gavage at dose levels of 0.1,0.2, and 0.5 mg/kg/day, once per day, on days 4 through 34 days post tumor implantation. Each group contained 5 mice.
# The endpoint for the subcutaneous tumor was tumor growth delay while the endpoint for the intracranial tumor was increase-in-lifespan (survival).
# [7] = tested on: human T98G glioblastoma xenograft (sc tumor); assay type: in vivo, mice; conditions: BCNU 15 mg/kg ip, days 7, 9, 11, alone
# Description: Each group contained 5 mice.
# [8] = 24 hours 10^-7 M halofuginone + 10% FBS, then washed
molecule,measurement,setting,value
Bleomycin,death of patients associated with pulmonary fibrosis,[1],1% to 2
same,treated patients with induced pulmonary fibrosis,[1],10% to 30
"O=C(CC1NCCC[C@H]1O)Cn1cnc2cc(Br)c(Cl)cc2c1=O (stereo in doubt) [halofuginone, 7-bromo-6-chloro-3-[3-(3-hydroxy-2-piperidinyl)-2-oxopropyl]-4(3H)-quinazolinone]",number of cells arrested in G1 phase,U266 cells,elevation
same,decrease in the survival fraction,[2],approximately 50%
same,[3H]-thymidine incorporation,[3]; 10^-7 M halofuginone added with 10% FBS to quiescent SMC,only low levels
same,lag before initiation of DNA synthesis after release from growth-arrest,[3]; [8],4 to 6 h
same,time of peak DNA synthesis after halofuginone removal,[3]; [8],10 h
same,cell cycle phase of arrest,[3]; continual presence of halofuginone,reversibly arrest at late G1 phase
same,leg length difference between the right and left leg,"[4]; 1-5 μg/mouse ip once daily, 35Gy or 45Gy, 2 and 4 months post radiation",dramatic decrease
same,"condition of irradiated leg (stiffness, skin)",[4]; versus mice that did not receive halofuginone,"definitely less stiff, and the skin was less dry"
same,percentage of cells in G0/G1,[5],65%
same,percentage of cells progressing into G2/M phase,[5],7%
"O=NN(CCCl)C(=O)NCCCl [BCNU, 1,3-bis(2-chloroethyl)-1-nitrosourea]",SURVIVAL Days (ic tumor),[6],97 ± 21 days
same,TUMOR GROWTH DELAY Days (sc tumor),[7],3.8 days and 3.9 ± 0.4 days
